Laboratory results published in patent publication US12109192B2, “Organic acid addition salts of S-pindolol” (ACTIMED THERAPEUTICS LTD, priority 2020, dated 2024).
≈ marks a conversion by molar mass, not a printed value. Read-outs that look alike come from different tables or passages of the source.

Legend:
[1] = as measured at 25° C.; for a monocarboxylic acid pKa1 is the pKa; cited from earlier work
[2] = Dynamic vapour sorption (DVS); type: physicochemical; conditions: for hygroscopicity: DVS up to 90% RH; for solid form after DVS (XRPD): post-DVS; for DVS mass uptake / DVS mass uptake as equivalents of water: at 90% RH, 25° C.
Protocol: Approximately 10-20 mg of sample was placed into a mesh vapour sorption balance pan and loaded into an Intrinsic dynamic vapour sorption balance by Surface Measurement Systems. The sample was subjected to a ramping profile from 40-90% relative humidity (RH) at 10% increments, maintaining the sample at each step until a stable weight had been achieved (dm/dt 0.004%, minimum step length 30 minutes, maximum step length 500 minutes) at 25° C. After completion of the sorption cycle, the sample was dried using the same procedure to 0% RH and then a second sorption cycle back to 40% RH. Two cycles were performed. The weight change during the sorption/desorption cycles were plotted, allowing for the hygroscopic nature of the sample to be determined. XRPD analysis was then carried out on any solid retained.

[3] = Thermodynamic solubility; conditions: unbuffered water, thermodynamic from solid

| solid form after DVS (XRPD) [2] | DVS mass uptake [2] [wt. %] | DVS mass uptake as equivalents of water [2] [eq. water] | Compound | pKa1 [1] | also measured |
| --- | --- | --- | --- | --- | --- |
|  |  |  | O=C(O)CCCC(=O)O [glutaric acid] | 4.34 |  |
|  |  |  | O=C(O)Cc1ccccc1 [phenylacetic acid] | 4.31 |  |
| Pattern 2 retained, organic solvent |  |  | CC(C)NC[C@H](O)COc1cccc2[nH]ccc12.O=C(O)c1ccccc1 [S-pindolol benzoate Pattern 2, S-pindolol benzoate] |  | hygroscopicity [2]: non-hygroscopic; Thermodynamic solubility, free base concentration (pH 1.2): 23.5 mg/mL; solid form after thermodynamic solubility experiment (pH 1.2): Salt disproportionated.; Thermodynamic solubility, free base concentration (pH 4.5): 17.6 mg/mL; solid form after thermodynamic solubility experiment (pH 4.5): Pattern 2 retained.; Thermodynamic solubility, free base concentration (pH 6.8): 9.9 mg/mL; solid form after thermodynamic solubility experiment (pH 6.8): Pattern 2 retained. |
| retained | 0.70 | 0.14 | CC(C)NC[C@H](O)COc1cccc2[nH]ccc12.O=C(O)CCC(=O)O [S-pindolol succinate Pattern 1, S-pindolol succinate] |  |  |
|  |  |  | Cc1ccccc1C(=O)O [toluic acid] | 4-5 |  |
| Pattern 1 retained, mass uptake | 0.23 | 0.05 | CC(C)NC[C@H](O)COc1cccc2[nH]ccc12.O=C(O)c1ccccc1 [S-pindolol benzoate Pattern 1, S-pindolol benzoate] |  | Thermodynamic solubility, free base concentration (pH 1.2): 29.9 mg/mL; solid form after thermodynamic solubility experiment (pH 1.2): Converted to amorphous.; Thermodynamic solubility, free base concentration (pH 4.5): 20.1 mg/mL; solid form after thermodynamic solubility experiment (pH 4.5): Converted to amorphous.; Thermodynamic solubility, free base concentration (pH 6.8): 17.4 mg/mL; solid form after thermodynamic solubility experiment (pH 6.8): Pattern 1 retained. |
| remained unchanged | 0.36 | 0.05 | CC(C)NC[C@H](O)COc1cccc2[nH]ccc12 [S-pindolol free base, (2S)-1-(1H-indol-4-yloxy)-3-(propan-2-ylamino)propan-2-ol, reference compound] |  | hygroscopicity [2]: slightly hygroscopic; solubility thermodynamic [3]: 1.8 mg/mL (≈ 7.25 mM) |
|  |  |  | O=C(O)c1ccc2ccccc2c1 [2-naphthoic acid] | 4.16 |  |
|  |  |  | O=C(O)[C@@H](O)c1ccccc1 [S-(+)-mandelic acid] | 3.37 |  |
|  |  |  | O=C(O)c1cccc2ccccc12 [1-naphthoic acid] | 3.67 |  |
